Results from paper PMC9820763, “The Functional Characterization of Carboxylesterases Involved in the Degradation of Volatile Esters Produced in Strawberry Fruits” (International Journal of Molecular Sciences, 2022).

Key:
rFaCXE3 (FaCXE3) = tested on: T1, rFaCXE3 (FaCXE3); assay: GC-MS of alcohol product, double-reciprocal plot; assay type: biochemical, Fragaria x ananassa; settings: Tris-HCl 100 mM, pH 7.5, 30 °C
T1 construct: fusion protein about 35-40 kDa; cloned from strawberry green fruit cDNA
Excerpt: GC-MS of alcohol product, double-reciprocal plot on rFaCXE3 (FaCXE3)

rFaCXE2 (FaCXE2) = tested on: T2, rFaCXE2 (FaCXE2); assay: GC-MS of alcohol product, double-reciprocal plot; assay type: biochemical, Fragaria x ananassa; settings: Tris-HCl 100 mM, pH 7.5, 30 °C
T2 construct: fusion protein about 35-40 kDa; cloned from strawberry green fruit cDNA
Excerpt: GC-MS of alcohol product, double-reciprocal plot on rFaCXE2 (FaCXE2)

SMILES: CCC/C=C/COC(C)=O [E-2-Hexenyl acetate]
- Km (rFaCXE3 (FaCXE3)): 980 ± 110 µM
- Km (rFaCXE2 (FaCXE2)): 1040 ± 50 µM

SMILES: CCCCCCOC(C)=O [Hexyl acetate]
- Km (rFaCXE3 (FaCXE3)): 840 ± 70 µM
- Km (rFaCXE2 (FaCXE2)): 10900 ± 840 µM

SMILES: CC/C=C\CCOC(C)=O [Z-3-Hexenyl acetate]
- Km (rFaCXE3 (FaCXE3)): 950 ± 50 µM
- Km (rFaCXE2 (FaCXE2)): 2500 ± 130 µM
